The values that follow come from article PMC6027146, “Synthesis and Structure-Activity Relationships of (−)-cis-N-Normetazocine-Based LP1 Derivatives” (Pharmaceuticals, 2018).

Read-outs that look alike come from different tables or passages of the source.

Series [1] concerns the target T1, human-KOR (Homo sapiens, UniProt P41145). The experiment in a line: Calcium mobilization assay, CHO-KOR cells expressing Gαqi5. Type of series: cell-based. Also on record: expressed in transfected cells; gift of Dr. Larry Toll (SRI International); infected with a retrovirus for Gαqi5. As to conditions: for KOR pEC50 (CL95%): agonist mode, crc incomplete = incomplete concentration response curve at 10 μM; for KOR pEC50 (CL95%) / KOR pKB (CL95%): Inactive = inactive at 10 μM; for KOR pKB (CL95%): antagonist mode, dynorphin A as agonist. As to the method: (§1) The pharmacological characterization of LP1 derivatives 2 and 10–16 was performed by calcium mobilization assay (Table 2). This procedure was preliminarily validated through a series of experiments where the effects of DPDPE, dermorphin, and dynorphin A were assessed in CHO cells expressing the human recombinant opioid receptors and Gαqi5 or GαqG66Di5 chimeric proteins.
(§2) Chinese hamster ovary (CHO) cells expressing the recombinant human MOR and KOR (CHO^MOR and CHO^KOR) were kindly provided by Dr. Larry Toll (SRI International, Menlo Park, CA, USA), and CHO cells expressing the recombinant human DOR (CHO^DOR) were supplied by Dr. Eva Varga (Department of Medical Pharmacology, The University of Arizona, Tucson, AZ, USA). CHO cells lines permanently coexpressing the opioid receptors and the C-terminally modified Gαqi5 were prepared by infecting the CHO lines described above with a recombinant retrovirus expressing the chimeric α subunit and the hygromycin resistance gene. Similarly, CHO cells lines permanently coexpressing DOR and the C-terminally modified GαqG66Di5 were prepared by infecting the CHO lines described above with a recombinant retrovirus expressing the chimeric α subunit and the hygromycin resistance gene. Polyclonal cell lines were generated using the pantropic retroviral expression system form BD-Clontech, as described previously. Stable lines were selected under hygromycin B (100 μg/mL) and geneticin (600 μg/mL) for 2–3 weeks after the infection.
(§3) CHO cells, expressing human opioid receptors and the Gαqi5 protein, and CHODOR, expressing the GαqG66Di5 protein, were maintained in culture medium consisting of Dulbecco minimum essential medium (DMEM) and Ham F-12 (1:1) (50/50) supplemented with 10% fetal calf serum (FCS), L-glutamine (2 mM), geneticin (200 μg/mL; G418), hygromycin B (100 μg/mL) at 37 °C in 5% CO2 humidified air. When confluence was reached (3–4 days), cells were subcultured as required using trypsin/EDTA, and used for experimentation. The different cell lines were seeded at a density of […] into black 96-well, clear-bottomed plates. After 24 h incubation, the cells were loaded with medium supplemented with 2.5 mM probenecid, 3 μM of the calcium sensitive fluorescent dye Fluo-4 AM, and 0.01% pluronic acid, for 30 min at 37 °C. Afterwards, the loading solution was aspirated and 100 μL/well of assay buffer—HBSS supplemented with 20 mM HEPES, 2.5 mM probenecid and 500 μM Brilliant Black (Aldrich, St. Louis, MO, USA)—was added. Serial dilutions of ligands for experimental use were made in HBSS/HEPES (20 mM) buffer (containing 0.005% BSA fraction V). After placing both plates (cell culture and compound plate) into the FlexStation II (Molecular Device, Union City, San Jose, CA 94587, USA), fluorescence changes were measured at room temperature. Online additions were carried out in a volume of 50 μL/well. Antagonists were incubated 15 min before the addition of the agonist. Maximum change in fluorescence, expressed in percent of baseline fluorescence, was used to determine agonist response.
(§4) Analysis of the binding data was performed using the Origin 7.5 software (OriginLab Corporation, Northampton, MA, USA). In calcium mobilization experiments, data were analyzed by non-linear curve fitting equation, using GraphPad 5.0 software. […] Ligand efficacy was expressed as intrinsic activity (α), calculated as the ratio between the Emax of the ligand and that of the respective standards. Calcium mobilization data were expressed as FIU (fluorescence intensity units) in percent, over the baseline. Agonist potencies are given as pEC50 (the negative logarithm to base 10 of the molar concentration of an agonist that produces 50% of the maximal possible effect, Emax). Concentration response curves to agonists were fitted with the following equation: Effect = baseline + (Emax − baseline)/(1+10^(LogEC50 − X) ∗ HillSlope) where X is the agonist concentration. […]
For orientation: A change in cytosolic calcium serves as a functional read-out for many receptors and channels.

Series [2] deals with T2, rat-DOR (Rattus norvegicus, UniProt P33533).
T2 construct: expressed in transfected cells
Also on record: method as in PMID 27234885. As to conditions: read-out: Ki (μM) ± SEM DOR; [3H]-DPN displacement; cited from earlier work.

The target in series [3] is T1, human-KOR. Also on record: expressed in transfected cells; method as in PMID 27234885. As to conditions: read-out: Ki (μM) ± SEM KOR; [3H]-DPN displacement; cited from earlier work.
Series [4] deals with T3, recombinant human MOR (Homo sapiens, UniProt P35372).
T3 construct: expressed in transfected cells; gift of Dr. Larry Toll (SRI International); infected with a retrovirus for Gαqi5
The experiment in a line: Calcium mobilization assay, CHO-MOR cells expressing Gαqi5. The format is cell-based. As to conditions: for MOR pEC50 (CL95%): agonist mode, crc incomplete = incomplete concentration response curve at 10 μM.

Series [5] addresses T4, recombinant human DOR (Homo sapiens, UniProt P41143).
T4 construct: expressed in transfected cells; supplied by Dr. Eva Varga (University of Arizona); infected with a retrovirus for GαqG66Di5
The experiment in a line: Calcium mobilization assay, CHO-DOR cells expressing GαqG66Di5. The format is cell-based. As to conditions: for DOR pEC50 (CL95%): agonist mode, crc incomplete = incomplete concentration response curve at 10 μM; for DOR pEC50 (CL95%) / DOR pKB (CL95%): Inactive = inactive at 10 μM; for DOR pKB (CL95%): antagonist mode, DPDPE as agonist. As to the method: as §1, §2, §3, §4

Series [6] has as its target T5, rat-MOR (Rattus norvegicus, UniProt P33535).
T5 construct: expressed in transfected cells
Also on record: method as in PMID 27234885. As to conditions: read-out: Ki (μM) ± SEM MOR; [3H]-DPN displacement; cited from earlier work.

Series [7] has as its target T2, rat-DOR. The experiment in a line: Radioligand competition binding, [3H]-DPN, HEK293 membranes, DOR. As to the method: (§5) All synthesized compounds were tested in vitro by radioligand competition binding using [^3H]-diprenorphine ([^3H]-DPN) to measure the affinity for opioid receptor subtypes in membranes from HEK293 cells stably expressing either MOR, DOR, or KOR, as previously described.
(§6) Confluent monolayers of HEK293 (human embryonic kidney 293) cells stably expressing rat-MOR, rat-DOR, or human-KOR were harvested, collected by centrifugation at 1500 rpm for 5 min, and washed once with phosphate-buffered saline (PBS) at pH 7.5. Membranes from cell pellets were carried out as described by Georgoussi and Zioudrou (1993) and Papakonstantinou et al. (2015). Briefly, cell pellets were resuspended in ice-cold membrane buffer (10 mM Tris-HCl, pH 7.5 and 0.1 mM EDTA), homogenized, and centrifuged at 2,000 g for 3 min at 4 °C. Supernatants were further centrifuged at 45,000 rpm for 30 min at 4 °C. The membrane pellet was resuspended in ice-cold membrane buffer at a protein concentration of approximately 1 mg/mL and stored in aliquots at −70 °C. Protein concentration was determined according to Bradford assay.
(§7) In the experiments designed to define compound affinity and selectivity for MOR, DOR, and KOR, membranes expressing each of these opioid receptors ([…]) were incubated at 30 °C for 45 min in buffer containing 50 mM Tris-HCl, pH 7.5, 100 mM NaCl, and 10 mM MgCl2 as described by Georgoussi et al. […] The ability of compounds 10–16 to displace [^3H]-DPN (3.75 nM) binding to the opioid receptors was assessed as described by Morou And Georgoussi (2005). Non-specific binding was measured in the presence of […] Naloxone. The reaction was stopped by rapid filtration and three washes in ice-cold 50 mM Tris-HCl, pH 7.4, through GF/C filters (Whatman, Maidstone, UK) using an automated cell harvester (Brandel Inc., Gaithersburg, MD, USA). The radioactivity was measured by liquid scintillation counting (Liquid Scintillation Analyzer, Packard).
(§8) Analysis of the binding data was performed using the Origin 7.5 software (OriginLab Corporation, Northampton, MA, USA). In calcium mobilization experiments, data were analyzed by non-linear curve fitting equation, using GraphPad 5.0 software. […] Ligand efficacy was expressed as intrinsic activity (α), calculated as the ratio between the Emax of the ligand and that of the respective standards. Calcium mobilization data were expressed as FIU (fluorescence intensity units) in percent, over the baseline. Agonist potencies are given as pEC50 (the negative logarithm to base 10 of the molar concentration of an agonist that produces 50% of the maximal possible effect, Emax). Concentration response curves to agonists were fitted with the following equation: Effect = baseline + (Emax − baseline)/(1+10^(LogEC50 − X) ∗ HillSlope) where X is the agonist concentration.
A general note: Displacement assays read how much labelled ligand stays bound in the presence of the test substance.

Series [8] concerns the target T1, human-KOR. The experiment in a line: Radioligand competition binding, [3H]-DPN, HEK293 membranes, KOR. Also on record: expressed in transfected cells. As to the method:
as §5, §6, §7, §8

Series [9] deals with T5, rat-MOR. Kind of series: Radioligand competition binding, [3H]-DPN, HEK293 membranes, MOR. As to the method: as §5, §6, §7, §8

With `CC1C2Cc3ccc(O)cc3C1(C)CCN2CCC(=O)Nc1cccc2ccccc12` (centres unmarked) [Compound 2], the Kb was 1380 nM in series [1], 12.6 nM in series [4] and 166 nM in series [5]. For the same molecule, the “KOR pEC50 (CL95%)” value in series [1] is “Inactive”. In addition, the Ki – broadly, a dissociation constant, usually derived from enzyme kinetics or from competition with a known ligand – is 0.21 ± 0.03 µM in series [2], 0.8 ± 0.016 µM in series [3] and 0.038 ± 0.004 µM in series [6]. Moreover, the “MOR pEC50 (CL95%)” value in series [4] (Inactive = inactive at 10 μM) was “Inactive ^e”. In addition, in [5], the “DOR pEC50 (CL95%)” value is recorded as “Inactive”.
With `COc1ccc(NC(=O)CCN2CC[C@@]3(C)c4cc(O)ccc4C[C@@H]2[C@@H]3C)cc1` [Compound 13, 3-[(2R,6R,11R)-8-Hydroxy-6,11-dimethyl-1,4,5,6-tetrahydro-2,6-methano-3-benzazocin-3(2H)-yl]-N-(4-methoxyphenyl)propanamide], the melting point (commonly the temperature, or range, at which the solid turns liquid) lay in the range of 172.9 to 173.5 °C. In addition, affinity in series [7] was put at a Ki of 1.1 ± 0.11 µM. This molecule also came in with an inhibitory constant (Ki) in series [8] of 4 ± 0.18 µM. Also, in series [1], the “KOR pEC50 (CL95%)” value is “Inactive” and the “KOR pKB (CL95%)” value is listed as “Inactive”. The molecule further returned a Ki in [9] of 0.18 ± 0.011 µM. Besides, the Kb in series [4] is 501 nM. In series [4] (Inactive = inactive at 10 μM), the “MOR pEC50 (CL95%)” value is “Inactive”. In series [5], the “DOR pEC50 (CL95%)” value was “Inactive” and the “DOR pKB (CL95%)” value is recorded as “Inactive”.
As to `C[C@H]1[C@H]2Cc3ccc(O)cc3[C@]1(C)CCN2CCC(=O)N1CCc2ccccc21` [Compound 14, 1-(2,3-Dihydro-1H-indol-1-yl)-3-[(2R,6R,11R)-8-hydroxy-6,11-dimethyl-1,4,5,6-tetrahydro-2,6-methano-3-benzazocin-3(2H)-yl]propan-1-one], the melting point is 169 °C (dec.). The Ki in series [7] ([3H]-DPN displacement, means ± SEM of three experiments in duplicate, read-out: Ki (μM) ± SEM DOR) is 1.4 ± 0.12 µM. The Ki in series [8] ([3H]-DPN displacement, means ± SEM of three experiments in duplicate, read-out: Ki (μM) ± SEM KOR) was 1.6 ± 0.12 µM. Also, in series [1], the “KOR pEC50 (CL95%)” value was “Inactive” and the “KOR pKB (CL95%)” value is on record as “Inactive”. Further, the Ki in series [9] ([3H]-DPN displacement, means ± SEM of three experiments in duplicate, read-out: Ki (μM) ± SEM MOR) came to 0.4 ± 0.03 µM. Besides, in series [4] (Inactive = inactive at 10 μM), the “MOR pEC50 (CL95%)” value is listed as “Inactive”. Further, in series [4] (antagonist mode, dermorphin as agonist, Inactive = inactive at 10 μM, read-out: MOR pKB (CL95%) (converted)), the Kb is 1150 nM. Moreover, in series [5], the “DOR pEC50 (CL95%)” value is recorded as “Inactive” and the “DOR pKB (CL95%)” value is on record as “Inactive”.
